In patent US9040714B2 (MannKind Corporation, priority 2010, dated 2015):
Where two headings read alike, the source gives them in different places.

How the values were obtained:
[1] = molecular target: human IRE-1α (GST-IRE-1α) (Homo sapiens (Human), UniProt O75460); assay: IRE-1α assay in vitro: cleavage of Cy5/BHQ2-labelled mini-XBP-1 mRNA stem-loop substrate; format: biochemical; conditions: average IC50 for inhibition of IRE-1α
Procedure: In some embodiments IRE-la inhibitor compounds form a complex with IRE-1α. […] Other substrates also can be used to detect cleavage. See US 2007/0105123.
A fusion protein comprising glutathione S transferase (GST) and human IRE-1α (GST-IRE-1α) obtained from a 500 ml baculovirus-infected insect cell culture can be used to measure IRE-1α activity in vitro.
Five μl of a reaction mixture comprising IX reaction buffer (5× reaction buffer is 100 mM Hepes pH 7.5, 250 mM KOAc, 2.5 mM MgCl2), 3 mM DTT, and 0.4% polyethylene glycol water is added to each well of 384 well plates. Twenty-five nanoliters of a 1 mM test compound solution are added to test wells. Three μl of a […] IRE-1α preparation are added to each test well and to positive control wells (final concentration 5.82 ng/well). Negative control wells contain only reaction mixture and test compound.
After spinning the plates at 1200 rpm for 30 seconds, 3 μl of an IRE-1α human mini-XBP-1 mRNA stem-loop substrate 5′-[…]-3′ (SEQ ID NO:1), labeled with the fluorescent dye Cy5 at the 5′ end and Black Hole Quencher 2 (BH2) at the 3′ end, are added to each well of a control plate. The plates are again spun at 1200 rpm for 30 seconds. Final concentrations for the assay are: 63 nM IRE-1α substrate, 5.82 ng IRE-1α protein, and 2.5 μM test compound.
The plates are covered with lids and incubated for one hour at 30° C. The plates are then transferred to an ACQUEST™ microplate reader. Data is analyzed using data analysis software, and the percent activity of IRE-1α is calculated.
IC50 for inhibition of IRE-1α of compounds identified in Table 1 was measured as described in EXAMPLE 35.

[2] = tested on: IRE-1α-mediated XBP-1 splicing in human myeloma MM.1s cells; assay: Cellular EC50: endogenous XBP-1 splicing in myeloma cells by RT-PCR (DTT stress); format: cell-based; conditions: MM1.S, read-out: EC50_av
Procedure: Human myeloma MM.1s cells are incubated with a compound for 1.25 hours before stressing the cells with 2 mM dithiothreitol (DTT). After an additional 45 minutes (2 hours total) with compound and DTT, the cells are harvested with TRIZOL® (a mono-phasic solution of phenol and guanidine isothiocyanate), and total RNA is prepared as directed by the manufacturer (Invitrogen). Human XBP-1 is amplified by RT-PCR with the following primers, which flank the 26 base unconventional intron excised by IRE-1α:
RT-PCR of unstressed (U) cells then generates the upper band. When cells are stressed (S) with the endoplasmic reticulum (ER) stressing agent DTT, IRE-1α is activated due to accumulating unfolded protein and the resulting RT-PCR, product is 26 base pairs shorter.
Compounds which pass specificity assays are assayed for cellular EC50 using endogenous XBP-1 splicing in myeloma cells. XBP-1 is regulated through the excision of a 26 nucleotide intron from the XBP-1 mRNA by the highly specific endoribonuclease activity of IRE-1α. […] This splicing event is used to measure IRE-1α activity on XBP-1 mRNA in cells and tissues.
Briefly, compounds are incubated in the presence or absence of an ER stress agent (e.g., DTT), and the ratio of XBP-1u (unspliced) to XBP-1 s (spliced) is quantified by RT-PCR. The ED50 is determined as the 50% XBP-1s to total XPB-1 levels.

[3] = average cellular EC50, XBP-1 splicing in myeloma cells

Chain of human IRE-1α (GST-IRE-1α) (O75460 19-977): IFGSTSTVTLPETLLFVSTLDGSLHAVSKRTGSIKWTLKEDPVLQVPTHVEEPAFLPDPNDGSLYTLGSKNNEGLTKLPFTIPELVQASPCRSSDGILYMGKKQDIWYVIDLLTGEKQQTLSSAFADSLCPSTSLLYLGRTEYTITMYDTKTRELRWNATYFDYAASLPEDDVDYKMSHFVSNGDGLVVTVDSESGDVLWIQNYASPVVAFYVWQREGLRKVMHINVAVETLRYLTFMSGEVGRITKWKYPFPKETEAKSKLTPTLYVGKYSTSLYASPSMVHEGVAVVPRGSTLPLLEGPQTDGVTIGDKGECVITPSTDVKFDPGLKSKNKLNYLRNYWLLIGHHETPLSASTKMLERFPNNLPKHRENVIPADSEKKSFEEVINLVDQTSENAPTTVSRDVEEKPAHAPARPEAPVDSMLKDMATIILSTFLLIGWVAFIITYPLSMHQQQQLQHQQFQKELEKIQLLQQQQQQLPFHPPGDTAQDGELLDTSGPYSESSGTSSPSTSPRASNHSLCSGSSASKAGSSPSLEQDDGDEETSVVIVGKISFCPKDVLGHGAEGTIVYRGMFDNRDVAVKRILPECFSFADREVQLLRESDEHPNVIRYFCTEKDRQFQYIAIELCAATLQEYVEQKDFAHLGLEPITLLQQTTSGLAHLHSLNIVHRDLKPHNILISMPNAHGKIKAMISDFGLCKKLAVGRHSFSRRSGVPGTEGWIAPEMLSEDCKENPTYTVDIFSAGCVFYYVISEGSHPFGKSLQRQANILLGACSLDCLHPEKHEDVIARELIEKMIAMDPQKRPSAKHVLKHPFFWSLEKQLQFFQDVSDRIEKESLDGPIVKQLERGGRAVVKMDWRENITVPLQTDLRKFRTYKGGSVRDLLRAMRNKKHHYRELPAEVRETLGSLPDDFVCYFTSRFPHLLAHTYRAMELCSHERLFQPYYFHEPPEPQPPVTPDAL

Structure (SMILES)	IC50 [1] [µM]	EC50 [2, 3] [µM]	EC50 [2] [µM]
Cc1c(-c2ccc(C(=O)NCCN3CCOCC3)cc2)c(=O)oc2c(C=O)c(O)ccc12 [Example 3]	< 0.1	< 10	–
CC(C)c1cc(=O)oc2c(C=O)c(O)ccc12 [Example 5]	< 0.1	–	< 10
O=Cc1c(O)ccc2cc(C(=O)O)c(=O)oc12 [Example 8]	> 10	–	> 10
Cc1c(-c2cccc(C(=O)N3CCN(C)CC3)c2)c(=O)oc2c(C=O)c(O)ccc12 [Example 10]	< 0.1	–	< 10
Cc1c(-c2cccc(C(=O)NCCN3CCOCC3)c2)c(=O)oc2c(C=O)c(O)ccc12 [Example 11]	< 0.1	< 10	–
Cc1c(-c2ccc(C(=O)N3CCOCC3)cc2)c(=O)oc2c(C=O)c(O)ccc12 [Example 12]	< 0.1	< 10	–
Cc1c(-c2ccc(N3CCN(C)CC3)nc2)c(=O)oc2c(C=O)c(O)ccc12 [Example 14]	< 0.1	< 10	–
Cc1c(-c2ccc(C(=O)N(C)C)cc2)c(=O)oc2c(C=O)c(O)ccc12 [Example 17]	< 0.1	< 10	–
Cc1c(-c2cccc(C(=O)N(C)C)c2)c(=O)oc2c(C=O)c(O)ccc12 [Example 20]	< 1	–	> 10
Cc1cc(=O)oc2c(C=O)c(O)c(Cl)cc12 [Example 22]	< 0.1	< 10	–
Cc1c(-c2ccc(N3CCN(C)CC3)cc2)c(=O)oc2c(C=O)c(O)c(F)cc12 [Example 24]	< 0.1	< 10	–
O=Cc1c(O)ccc2c1CCN(Cc1ccccc1)C2 [Example 28]	< 10	> 10	–
CN1CCN(CC(=O)N2CCc3c(ccc(O)c3C=O)C2)CC1 [Example 30]	> 10	–	–
O=Cc1c(O)ccc2c1CCN(C(=O)c1cccnc1)C2 [Example 31]	> 10	–	–
Cc1nc(N2CCc3c(ccc(O)c3C=O)C2)sc1C(=O)N1CCN(C)CC1 [Example 32]	< 10	–	–
CN1CCN(C(=O)c2cnc(N3CCc4c(ccc(O)c4C=O)C3)s2)CC1 [Example 33]	< 10	–	> 10
Cc1nc(N2CCc3c(ccc(O)c3C=O)C2)sc1C(=O)NC1CCNCC1 [Example 35]	< 0.1	> 10	–
Cc1nc(N2CCc3c(ccc(O)c3C=O)C2)sc1C(=O)NC1CCN(C)CC1 [Example 36]	< 1	> 10	–
Cc1nc(N2CCc3c(ccc(O)c3C=O)C2)sc1C(=O)NCCN1CCOCC1 [Example 37]	< 0.1	> 10	–

Structure (SMILES)	IC50 [1] [µM]	EC50 [2, 3] [µM]	EC50 [2] [µM]
CN1CCN(c2ncc(C(=O)N3CCc4c(ccc(O)c4C=O)C3)s2)CC1 [Example 38]	< 0.1	> 10	–
CCc1cc2c(=O)c(-c3nc(C)cs3)coc2c(C=O)c1O [Example 39]	< 0.1	> 10	–
O=Cc1c(O)ccc2c(=O)c(-c3cnn(-c4ccccc4)c3)coc12 [Example 40]	< 1	> 10	–
CN1CCN(C(=O)c2ccc(-c3ccc4c(C=O)c(O)ccc4n3)cc2)CC1 [Example 41]	< 1	< 10	–
CN1CCN(C(=O)c2cccc(-c3ccc4c(C=O)c(O)ccc4n3)c2)CC1 [Example 42]	< 1	< 10	–
O=Cc1c(O)ccc2nc(-c3ccc(C(=O)N4CCOCC4)cc3)ccc12 [Example 44]	< 1	< 10	–
O=Cc1c(O)ccc2nc(-c3ccc(C(=O)NCCN4CCOCC4)cc3)ccc12 [Example 45]	< 1	< 10	–
O=Cc1c(O)ccc2nc(-c3cccc(C(=O)NCCN4CCOCC4)c3)ccc12 [Example 46]	< 0.1	–	< 10
O=Cc1c(O)ccc2nc(SCC(=O)O)[nH]c12 [Example 63]	< 0.1	> 10	–
O=Cc1c(O)ccc2nc(-c3cccc(C(=O)O)c3)[nH]c12 [Example 64]	< 0.1	> 10	–
COC(=O)c1cccc(-c2nc3ccc(O)c(C=O)c3[nH]2)c1 [Example 65]	< 0.1	–	< 10
Cc1c(-c2ccc(C(=O)N3CCOCC3)cc2)c(=O)oc2c(C=O)c(O)c(Cl)cc12 [Example 67]	< 1	> 10	–
CCOC(=O)c1sc(-c2cc3ccc(O)c(C=O)c3oc2=O)nc1C [Example 68]	< 0.1	< 10	–
Cc1c(CC(=O)O)c(=O)oc2c(C=O)c(O)ccc12 [Example 70]	< 0.1	–	> 10
CCOC(=O)c1cnc(-c2cc3ccc(O)c(C=O)c3oc2=O)s1 [Example 106]	< 0.1	< 10	–
CN1CCN(C(=O)c2cnc(-c3cc4ccc(O)c(C=O)c4oc3=O)s2)CC1 [Example 107]	< 0.1	< 10	–
Cc1nc(-c2cc3ccc(O)c(C=O)c3oc2=O)sc1C(=O)N1CCN(C)CC1 [Example 108]	< 0.1	< 10	–
Cc1nc(-c2cc3ccc(O)c(C=O)c3oc2=O)sc1C(=O)NCCN1CCOCC1 [Example 109]	< 0.1	< 10	–
Cc1nc(-c2c(C)c3ccc(O)c(C=O)c3oc2=O)sc1C(=O)N1CCN(C)CC1 [Example 110]	< 1	–	< 10

Structure (SMILES)	IC50 [1] [µM]	EC50 [2, 3] [µM]	EC50 [2] [µM]
COc1cc2c(C)c(-c3ccc(C(=O)N4CCN(C)CC4)cc3)c(=O)oc2c(C=O)c1O [Example 111]	< 0.1	< 10	–
Cc1c(/C=C/C(=O)N2CCN(C)CC2)c(=O)oc2c(C=O)c(O)ccc12 [Example 112]	< 0.1	< 10	–
COc1cc2c(C)c(-c3ccc(N4CCN(C)CC4)nc3)c(=O)oc2c(C=O)c1O [Example 113]	< 0.1	–	< 10
COc1cc2c(C)c(-c3ccc(N4CCOCC4)nc3)c(=O)oc2c(C=O)c1O [Example 114]	< 1	< 10	–
COc1cc2c(C)c(-c3ccc(N(C)C)nc3)c(=O)oc2c(C=O)c1O [Example 115]	< 1	< 10	–
[2H]C(=O)c1c(O)ccc2c(C)c(-c3ccc(C(=O)NCCN4CCOCC4)cc3)c(=O)oc12 [Example 116]	< 0.1	< 10	–
CCc1cc2c(C)c(-c3ccc(C(=O)NCCN4CCOCC4)cc3)c(=O)oc2c(C=O)c1O [Example 117]	< 1	–	< 10
CN1CCN(C(=O)c2cc3c(C=O)c(O)ccc3[nH]2)CC1 [Example 275]	–	> 10	–
CCNC(=O)c1cc2c(C=O)c(O)ccc2[nH]1 [Example 276]	–	> 10	–
O=Cc1c(O)ccc2[nH]c(C(=O)NCCN3CCOCC3)cc12 [Example 277]	–	> 10	–
CN(C)CCNC(=O)c1cc2c(C=O)c(O)ccc2[nH]1 [Example 278]	–	> 10	–
CCOC(=O)c1cc2c(C=O)c(O)ccc2[nH]1 [Example 279]	–	> 10	–
CCOC(=O)c1cc2c(C=O)c(O)ccc2o1 [Example 280]	–	> 10	–
O=Cc1c(O)ccc2oc(C(=O)O)cc12 [Example 281]	–	> 10	–
COCCNC(=O)c1cc2c(C=O)c(O)ccc2o1 [Example 282]	–	> 10	–
O=Cc1c(O)ccc2oc(C(=O)N3CCOCC3)cc12 [Example 283]	–	> 10	–
CN1CCN(C(=O)c2cc3c(C=O)c(O)ccc3o2)CC1 [Example 284]	–	> 10	–
CCNC(=O)c1cc2c(C=O)c(O)ccc2o1 [Example 285]	–	< 10	–
O=Cc1c(O)ccc2oc(C(=O)NCCN3CCOCC3)cc12 [Example 286]	–	< 10	–
